Results from EP0908457B1, “3-(1,2-benzisothiazol- and isoxazol-5-Y1)-2,4(1H,3H)-pyrimidinedione or thione and 3-(1,2-benzisothiazol- and isoxazol-5-y1)-4(3H)-pyrimidinone or thione herbicidal agents” (BASF AKTIENGESELLSCHAFT, priority 1997, dated 1999).

Tests used:
Sagittaria pygmaea, L. = assay: Preemergence weed control under flooded paddy conditions, SAGPY (Arrowhead (Pygmaea)); format: in vivo; conditions: preemergence weeds, flooded paddy, herbicidal effect rating 0-9, three to four weeks after treatment
[1] = test system: Monochoria vaginalis, Presl.; assay: Preemergence weed control under flooded paddy conditions, MOOVA (Monochoria); format: in vivo; conditions: preemergence weeds, flooded paddy, herbicidal effect rating 0-9, three to four weeks after treatment
[2] = test system: Echinochloa oryzoides (Ard.) Fritsch.; assay: Preemergence weed control under flooded paddy conditions, ECHORC (Watergrass (Calif.)); format: in vivo; conditions: preemergence weeds, flooded paddy, herbicidal effect rating 0-9, three to four weeks after treatment
[3] = test system: Oryza sativa, (L.) Tebonnet; assay: Rice tolerance to post-transplant applications under flooded paddy conditions (Example 187), ORYSAT (Rice, Tebonnet); conditions: herbicidal effect rating 0-9, three to four weeks after treatment
[4] = test system: Cyperus serotinus, Rottb.; assay: Preemergence weed control under flooded paddy conditions, CYPSE (Flatsedge); format: in vivo; conditions: preemergence weeds, herbicidal effect rating 0-9, three to four weeks after treatment
Cyperus iria = assay: Preemergence weed control under flooded paddy conditions, CYPIR (Rice Flatsedge); format: in vivo; conditions: preemergence weeds, flooded paddy, herbicidal effect rating 0-9, three to four weeks after treatment

Cn1c(C(F)(F)F)cc(=O)n(-c2ccc3snc(C4(C#N)CC4)c3c2)c1=O [Example 446, Cyclopropanecarbonitrile, 1-{5-[3,6-dihydro-3-methyl-2,6-dioxo-4-(trifluoromethyl)-1(2H)-pyrimidinyl]-1,2-benzisothiazol-3-yl}-]
SAGPY (Sagittaria pygmaea, L.; 0.0320 kg/ha): 9.0
SAGPY (Sagittaria pygmaea, L.; 0.0620 kg/ha): 9.0
SAGPY (Sagittaria pygmaea, L.; 0.1250 kg/ha): 9.0
SAGPY (Sagittaria pygmaea, L.; 0.2500 kg/ha): 9.0
MOOVA ([1]; 0.0320 kg/ha): 9.0
MOOVA ([1]; 0.0620 kg/ha): 9.0
MOOVA ([1]; 0.1250 kg/ha): 9.0
MOOVA ([1]; 0.2500 kg/ha): 9.0
ECHORC ([2]; 0.0320 kg/ha): 6.0
ECHORC ([2]; 0.0620 kg/ha): 6.0
ECHORC ([2]; 0.1250 kg/ha): 7.0
ECHORC ([2]; 0.2500 kg/ha): 9.0
ORYSAT ([3]; 0.0320 kg/ha): 6.0
ORYSAT ([3]; 0.0620 kg/ha): 7.0
ORYSAT ([3]; 0.1250 kg/ha): 9.0
ORYSAT ([3]; 0.2500 kg/ha): 9.0
CYPSE ([4]; 0.0320 kg/ha): 9.0
CYPSE ([4]; 0.0620 kg/ha): 9.0
CYPSE ([4]; 0.1250 kg/ha): 9.0
CYPSE ([4]; 0.2500 kg/ha): 9.0
CYPIR (Cyperus iria; 0.0320 kg/ha): 9.0
CYPIR (Cyperus iria; 0.0620 kg/ha): 9.0
CYPIR (Cyperus iria; 0.1250 kg/ha): 9.0
CYPIR (Cyperus iria; 0.2500 kg/ha): 9.0

COc1cc(C(Br)Br)ccc1-c1nsc2ccc(-n3c(=O)cc(C(F)(F)F)n(C)c3=O)cc12 [Example 447, 2,4(1H,3H)-Pyrimidinedione, 3-[3-(alpha,alpha-dibromo-2-methoxy-p-tolyl)-1,2-benzisothiazol-5-yl]-1-methyl-6-(trifluoromethyl)-]
SAGPY (Sagittaria pygmaea, L.; 0.0320 kg/ha): 4.0
SAGPY (Sagittaria pygmaea, L.; 0.0620 kg/ha): 4.0
SAGPY (Sagittaria pygmaea, L.; 0.1250 kg/ha): 5.0
SAGPY (Sagittaria pygmaea, L.; 0.2500 kg/ha): 9.0
MOOVA ([1]; 0.0320 kg/ha): 7.0
MOOVA ([1]; 0.0620 kg/ha): 9.0
MOOVA ([1]; 0.1250 kg/ha): 9.0
MOOVA ([1]; 0.2500 kg/ha): 9.0
ECHORC ([2]; 0.0320 kg/ha): 4.0
ECHORC ([2]; 0.0620 kg/ha): 6.0
ECHORC ([2]; 0.1250 kg/ha): 7.0
ECHORC ([2]; 0.2500 kg/ha): 9.0
ORYSAT ([3]; 0.0320 kg/ha): 4.0
ORYSAT ([3]; 0.0620 kg/ha): 4.0
ORYSAT ([3]; 0.1250 kg/ha): 5.0
ORYSAT ([3]; 0.2500 kg/ha): 7.0
CYPSE ([4]; 0.0320 kg/ha): 0.0
CYPSE ([4]; 0.0620 kg/ha): 0.0
CYPSE ([4]; 0.2500 kg/ha): 4.0
CYPIR (Cyperus iria; 0.0320 kg/ha): 4.0
CYPIR (Cyperus iria; 0.0620 kg/ha): 6.0
CYPIR (Cyperus iria; 0.1250 kg/ha): 7.0
CYPIR (Cyperus iria; 0.2500 kg/ha): 9.0

CCOCOCc1nsc2ccc(-n3c(=O)cc(C(F)(F)F)n(C)c3=O)cc12 [Example 455, 2,4(1H,3H)-Pyrimidinedione, 3-(3-[(ethoxymethoxy)methyl]-1,2-benzisothiazol-5-yl}-1-methyl-6-(trifluoromethyl)-]
SAGPY (Sagittaria pygmaea, L.; 0.0320 kg/ha): 4.0
SAGPY (Sagittaria pygmaea, L.; 0.0620 kg/ha): 6.0
SAGPY (Sagittaria pygmaea, L.; 0.1250 kg/ha): 7.0
SAGPY (Sagittaria pygmaea, L.; 0.2500 kg/ha): 9.0
MOOVA ([1]; 0.0320 kg/ha): 6.0
MOOVA ([1]; 0.0620 kg/ha): 7.0
MOOVA ([1]; 0.1250 kg/ha): 9.0
MOOVA ([1]; 0.2500 kg/ha): 9.0
ECHORC ([2]; 0.0320 kg/ha): 9.0
ECHORC ([2]; 0.0620 kg/ha): 9.0
ECHORC ([2]; 0.1250 kg/ha): 9.0
ECHORC ([2]; 0.2500 kg/ha): 9.0
ORYSAT ([3]; 0.0320 kg/ha): 6.0
ORYSAT ([3]; 0.0620 kg/ha): 8.0
ORYSAT ([3]; 0.1250 kg/ha): 9.0
ORYSAT ([3]; 0.2500 kg/ha): 9.0
CYPSE ([4]; 0.0320 kg/ha): 2.0
CYPSE ([4]; 0.0620 kg/ha): 6.0
CYPSE ([4]; 0.1250 kg/ha): 8.0
CYPSE ([4]; 0.2500 kg/ha): 9.0
CYPIR (Cyperus iria; 0.0320 kg/ha): 6.0
CYPIR (Cyperus iria; 0.0620 kg/ha): 7.0
CYPIR (Cyperus iria; 0.1250 kg/ha): 9.0
CYPIR (Cyperus iria; 0.2500 kg/ha): 9.0
